From patent EP4722212A1, “NOVEL COMPOUND FOR INHIBITING PROTEIN KINASES AND PHARMACEUTICAL COMPOSITION COMPRISING SAME” (Magicbullettherapeutics Co., Ltd., priority 2023, dated 2024)
Like-named read-outs stand apart in the source and are kept apart here.

Columns and labels:
Test in all cases: Kinase panel
Assay type in all cases: biochemical
MAPKAPK2 = MAPKAPK2 (Homo sapiens, UniProt P49137); conditions: MAPKAPK2, 1 µM; read-out: residual enzyme activity
Protocol: (§1) To measure the inhibitory activity of protein kinases against the compounds of the present invention, a biochemical assay was performed using a full kinase panel. The inhibitory efficacy of kinases was measured when Example compounds 8 and 51 were treated at a single concentration of 1 µM, and residual enzyme activity values were calculated. Kinases were identified when the calculated residual enzyme activity values were 40% or less, i.e., inhibited by 60% or more.

PIM3 = PIM3 (Homo sapiens, UniProt Q86V86); conditions: PIM3, 1 µM; read-out: residual enzyme activity
Protocol: as §1

RSK2 = RSK2 (Homo sapiens, UniProt P51812); conditions: RSK2, 1 µM; read-out: residual enzyme activity
Protocol: as §1

PKD2/PRKD2 = PKD2/PRKD2 (Homo sapiens, UniProt Q9BZL6); conditions: PKD2/PRKD2, 1 µM; read-out: residual enzyme activity
Protocol: as §1

TESK2 = TESK2 (Homo sapiens, UniProt Q96S53); conditions: TESK2, 1 µM; read-out: residual enzyme activity
Protocol: as §1

CDK2/CYCLIN E = CDK2/CYCLIN E (Homo sapiens, UniProt P24941); conditions: read-out: residual enzyme activity
Protocol: as §1

NEK4 = NEK4 (Homo sapiens, UniProt P51957); conditions: NEK4, 1 µM; read-out: residual enzyme activity
Protocol: as §1

DAPK2 = DAPK2 (Homo sapiens, UniProt Q9UIK4); conditions: DAPK2, 1 µM; read-out: residual enzyme activity
Protocol: as §1

GCK/MAP4K2 = GCK/MAP4K2 (Homo sapiens, UniProt Q12851); conditions: GCK/MAP4K2, 1 µM; read-out: residual enzyme activity
Protocol: as §1

PKN3/PRK3 = PKN3/PRK3 (Homo sapiens, UniProt Q6P5Z2); conditions: PKN3/PRK3, 1 µM; read-out: residual enzyme activity
Protocol: as §1

ZAK/MLTK = ZAK/MLTK (Homo sapiens, UniProt Q9NYL2); conditions: read-out: residual enzyme activity
Protocol: as §1

MKK4 = MKK4 (Homo sapiens, UniProt P45985); conditions: MKK4, 1 µM; read-out: residual enzyme activity
Protocol: as §1

CDK17/CYCLIN Y (PCTK2) = CDK17/CYCLIN Y (PCTK2) (Homo sapiens, UniProt Q00537); conditions: read-out: residual enzyme activity
Protocol: as §1

WNK1 = WNK1 (Homo sapiens, UniProt Q9H4A3); conditions: WNK1, 1 µM; read-out: residual enzyme activity
Protocol: as §1

IGFIR = IGFIR (Homo sapiens, UniProt P08069); conditions: read-out: residual enzyme activity
Protocol: as §1

KDR/VEGFR2 = KDR/VEGFR2 (Homo sapiens, UniProt P35968); conditions: KDR/VEGFR2, 1 µM; read-out: residual enzyme activity
Protocol: as §1

MELK = MELK (Homo sapiens, UniProt Q14680); conditions: read-out: residual enzyme activity
Protocol: as §1

CDK16/CYCLIN Y (PCTAIRE) = CDK16/CYCLIN Y (PCTAIRE) (Homo sapiens, UniProt Q00536); conditions: read-out: residual enzyme activity
Protocol: as §1

MEKK2 = MEKK2 (Homo sapiens, UniProt Q9Y2U5); conditions: MEKK2, 1 µM; read-out: residual enzyme activity
Protocol: as §1

PKN2/PRK2 = PKN2/PRK2 (Homo sapiens, UniProt Q16513); conditions: PKN2/PRK2, 1 µM; read-out: residual enzyme activity
Protocol: as §1

STK32C/YANK3 = STK32C/YANK3 (Homo sapiens, UniProt Q86UX6); conditions: STK32C/YANK3, 1 µM; read-out: residual enzyme activity
Protocol: as §1

CDK9/CYCLIN T1 = CDK9/CYCLIN T1 (Homo sapiens, UniProt P50750); conditions: CDK9/cyclin T1, 1 µM; read-out: residual enzyme activity
Protocol: as §1

EPHB1 = EPHB1 (Homo sapiens, UniProt P54762); conditions: EPHB1, 1 µM; read-out: residual enzyme activity
Protocol: as §1

CDK6/CYCLIN D1 = CDK6/CYCLIN D1 (Homo sapiens, UniProt Q00534); conditions: CDK6/cyclin D1, 1 µM; read-out: residual enzyme activity
Protocol: as §1

AKT1 = AKT1 (Homo sapiens, UniProt P31749); conditions: AKT1, 1 µM; read-out: residual enzyme activity
Protocol: as §1

FES/FPS = FES/FPS (Homo sapiens, UniProt P07332); conditions: read-out: residual enzyme activity
Protocol: as §1

MLCK2/MYLK2 = MLCK2/MYLK2 (Homo sapiens, UniProt Q9H1R3); conditions: MLCK2/MYLK2, 1 µM; read-out: residual enzyme activity
Protocol: as §1

P38G = P38G (Homo sapiens, UniProt P53778); conditions: read-out: residual enzyme activity
Protocol: as §1

PKCA = PKCA (Homo sapiens, UniProt P17252); conditions: read-out: residual enzyme activity
Protocol: as §1

LOK/STK10 = LOK/STK10 (Homo sapiens, UniProt O94804); conditions: LOK/STK10, 1 µM; read-out: residual enzyme activity
Protocol: as §1

AURORA A = AURORA A (Homo sapiens, UniProt O14965); conditions: read-out: residual enzyme activity
Protocol: as §1

P38D/MAPK13 = P38D/MAPK13 (Homo sapiens, UniProt O15264); conditions: read-out: residual enzyme activity
Protocol: as §1

PDGFRB = PDGFRB (Homo sapiens, UniProt P09619); conditions: read-out: residual enzyme activity
Protocol: as §1

P38D/MAPK13, sequence (O15264 whole entry): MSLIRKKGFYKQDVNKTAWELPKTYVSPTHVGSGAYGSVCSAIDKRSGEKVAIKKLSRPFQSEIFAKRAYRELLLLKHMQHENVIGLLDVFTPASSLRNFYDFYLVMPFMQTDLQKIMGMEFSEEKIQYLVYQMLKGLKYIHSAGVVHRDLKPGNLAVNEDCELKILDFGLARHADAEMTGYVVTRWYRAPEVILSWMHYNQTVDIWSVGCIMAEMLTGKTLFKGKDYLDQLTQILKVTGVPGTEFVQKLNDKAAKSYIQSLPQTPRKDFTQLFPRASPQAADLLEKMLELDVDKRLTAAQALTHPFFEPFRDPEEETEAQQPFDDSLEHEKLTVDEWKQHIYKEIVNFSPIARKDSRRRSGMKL
RSK2, sequence (P51812 whole entry, species assumed): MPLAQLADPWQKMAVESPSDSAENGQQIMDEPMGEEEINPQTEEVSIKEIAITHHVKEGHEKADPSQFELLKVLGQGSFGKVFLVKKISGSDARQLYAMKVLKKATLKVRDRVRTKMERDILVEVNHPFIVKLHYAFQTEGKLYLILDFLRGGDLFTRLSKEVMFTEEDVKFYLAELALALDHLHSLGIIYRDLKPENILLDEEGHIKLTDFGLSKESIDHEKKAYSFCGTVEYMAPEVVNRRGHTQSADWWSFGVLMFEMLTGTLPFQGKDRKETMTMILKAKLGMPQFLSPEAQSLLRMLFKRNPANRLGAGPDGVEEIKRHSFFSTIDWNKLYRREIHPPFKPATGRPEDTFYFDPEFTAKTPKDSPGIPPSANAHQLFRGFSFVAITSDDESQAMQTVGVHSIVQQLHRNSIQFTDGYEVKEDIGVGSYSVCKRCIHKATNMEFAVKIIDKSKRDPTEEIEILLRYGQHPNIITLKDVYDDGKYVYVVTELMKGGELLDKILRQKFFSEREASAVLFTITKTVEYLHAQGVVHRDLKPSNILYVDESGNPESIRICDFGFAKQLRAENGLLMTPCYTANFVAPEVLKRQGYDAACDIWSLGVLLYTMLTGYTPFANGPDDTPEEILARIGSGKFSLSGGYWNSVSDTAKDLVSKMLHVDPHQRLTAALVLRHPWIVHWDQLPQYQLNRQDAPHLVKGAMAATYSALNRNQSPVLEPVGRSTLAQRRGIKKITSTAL
AURORA A, sequence (O14965 whole entry): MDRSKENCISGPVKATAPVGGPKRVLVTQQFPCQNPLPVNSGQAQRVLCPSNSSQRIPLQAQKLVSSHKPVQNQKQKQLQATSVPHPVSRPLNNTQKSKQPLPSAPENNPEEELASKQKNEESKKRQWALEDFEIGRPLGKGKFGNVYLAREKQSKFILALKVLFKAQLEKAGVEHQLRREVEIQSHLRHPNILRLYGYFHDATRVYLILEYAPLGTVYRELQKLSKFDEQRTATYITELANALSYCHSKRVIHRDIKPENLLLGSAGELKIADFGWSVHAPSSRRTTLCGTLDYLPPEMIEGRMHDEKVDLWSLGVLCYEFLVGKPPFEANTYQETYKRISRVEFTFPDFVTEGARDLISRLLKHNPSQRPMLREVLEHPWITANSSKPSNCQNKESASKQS
KDR/VEGFR2, sequence (P35968 20-1356): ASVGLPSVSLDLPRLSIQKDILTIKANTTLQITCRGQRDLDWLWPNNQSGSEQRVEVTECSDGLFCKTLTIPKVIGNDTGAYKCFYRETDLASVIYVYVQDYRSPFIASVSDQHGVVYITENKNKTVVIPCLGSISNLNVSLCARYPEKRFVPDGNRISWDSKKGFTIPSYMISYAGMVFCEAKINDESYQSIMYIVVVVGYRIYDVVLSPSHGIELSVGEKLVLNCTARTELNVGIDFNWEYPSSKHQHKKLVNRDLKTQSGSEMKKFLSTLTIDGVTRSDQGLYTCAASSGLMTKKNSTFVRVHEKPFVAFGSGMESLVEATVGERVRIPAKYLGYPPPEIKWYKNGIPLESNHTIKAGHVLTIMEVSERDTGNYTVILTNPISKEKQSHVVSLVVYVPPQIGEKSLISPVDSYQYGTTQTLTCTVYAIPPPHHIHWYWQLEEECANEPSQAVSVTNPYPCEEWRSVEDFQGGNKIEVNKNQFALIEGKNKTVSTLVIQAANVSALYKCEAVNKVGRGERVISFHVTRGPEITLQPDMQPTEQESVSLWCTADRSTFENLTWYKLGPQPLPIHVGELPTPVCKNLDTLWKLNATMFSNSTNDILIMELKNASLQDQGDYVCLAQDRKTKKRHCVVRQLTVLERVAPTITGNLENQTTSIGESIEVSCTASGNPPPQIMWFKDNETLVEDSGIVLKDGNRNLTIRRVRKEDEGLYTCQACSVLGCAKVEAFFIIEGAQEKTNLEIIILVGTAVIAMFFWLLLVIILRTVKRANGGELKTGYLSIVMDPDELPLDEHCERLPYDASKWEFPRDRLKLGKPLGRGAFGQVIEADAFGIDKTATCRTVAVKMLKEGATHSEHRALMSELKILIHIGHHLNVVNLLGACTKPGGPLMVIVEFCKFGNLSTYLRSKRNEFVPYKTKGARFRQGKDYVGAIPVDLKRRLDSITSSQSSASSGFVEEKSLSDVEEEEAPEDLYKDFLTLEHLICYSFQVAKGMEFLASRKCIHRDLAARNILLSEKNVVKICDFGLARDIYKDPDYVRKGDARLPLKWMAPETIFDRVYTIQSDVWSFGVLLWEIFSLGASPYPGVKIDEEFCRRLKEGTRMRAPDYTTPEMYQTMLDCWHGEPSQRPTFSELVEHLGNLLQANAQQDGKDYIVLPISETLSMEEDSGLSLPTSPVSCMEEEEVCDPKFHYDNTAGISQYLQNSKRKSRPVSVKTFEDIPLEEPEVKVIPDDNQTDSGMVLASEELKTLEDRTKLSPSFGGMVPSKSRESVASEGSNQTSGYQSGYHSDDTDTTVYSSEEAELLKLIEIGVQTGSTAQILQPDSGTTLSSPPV
AKT1, sequence (P31749 whole entry): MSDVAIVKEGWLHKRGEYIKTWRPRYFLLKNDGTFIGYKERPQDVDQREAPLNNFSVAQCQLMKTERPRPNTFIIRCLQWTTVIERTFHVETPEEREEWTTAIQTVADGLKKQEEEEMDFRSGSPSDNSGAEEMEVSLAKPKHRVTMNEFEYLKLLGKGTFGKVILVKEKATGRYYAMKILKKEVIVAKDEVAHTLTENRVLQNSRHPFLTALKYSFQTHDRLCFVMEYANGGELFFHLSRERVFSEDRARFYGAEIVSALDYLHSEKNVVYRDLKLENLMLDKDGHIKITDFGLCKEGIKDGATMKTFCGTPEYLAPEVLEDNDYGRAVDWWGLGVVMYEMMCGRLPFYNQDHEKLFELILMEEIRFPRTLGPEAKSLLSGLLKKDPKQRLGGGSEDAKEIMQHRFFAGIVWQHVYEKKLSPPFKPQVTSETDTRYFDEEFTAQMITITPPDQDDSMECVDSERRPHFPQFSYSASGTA
CDK17/CYCLIN Y (PCTK2), sequence (Q00537 whole entry, species assumed): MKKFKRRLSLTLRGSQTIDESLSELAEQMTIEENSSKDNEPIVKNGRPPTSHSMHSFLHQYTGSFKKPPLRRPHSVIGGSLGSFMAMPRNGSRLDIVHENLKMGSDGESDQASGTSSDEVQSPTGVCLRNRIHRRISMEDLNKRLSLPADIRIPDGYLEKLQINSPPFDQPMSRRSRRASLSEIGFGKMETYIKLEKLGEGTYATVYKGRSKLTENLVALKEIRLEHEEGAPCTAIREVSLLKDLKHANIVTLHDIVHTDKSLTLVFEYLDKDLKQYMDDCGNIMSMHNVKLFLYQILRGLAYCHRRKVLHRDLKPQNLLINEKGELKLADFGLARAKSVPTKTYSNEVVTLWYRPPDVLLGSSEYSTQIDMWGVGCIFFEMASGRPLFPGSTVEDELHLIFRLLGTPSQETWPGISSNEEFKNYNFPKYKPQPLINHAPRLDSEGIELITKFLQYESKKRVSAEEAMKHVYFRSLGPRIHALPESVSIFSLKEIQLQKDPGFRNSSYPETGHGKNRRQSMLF
CDK17/CYCLIN Y (PCTK2), sequence (Q8ND76 whole entry partner, species assumed): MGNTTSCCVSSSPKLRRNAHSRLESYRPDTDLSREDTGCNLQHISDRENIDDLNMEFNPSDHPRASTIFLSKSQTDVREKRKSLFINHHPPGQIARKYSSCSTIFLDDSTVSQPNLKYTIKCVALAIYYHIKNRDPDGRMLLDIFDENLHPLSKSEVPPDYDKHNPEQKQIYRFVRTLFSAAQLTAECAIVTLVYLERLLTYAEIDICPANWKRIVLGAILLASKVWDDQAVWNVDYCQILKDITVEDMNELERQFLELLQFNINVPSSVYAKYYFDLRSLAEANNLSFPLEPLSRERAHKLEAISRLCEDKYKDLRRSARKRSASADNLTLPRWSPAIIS
FES/FPS, sequence (P07332 whole entry): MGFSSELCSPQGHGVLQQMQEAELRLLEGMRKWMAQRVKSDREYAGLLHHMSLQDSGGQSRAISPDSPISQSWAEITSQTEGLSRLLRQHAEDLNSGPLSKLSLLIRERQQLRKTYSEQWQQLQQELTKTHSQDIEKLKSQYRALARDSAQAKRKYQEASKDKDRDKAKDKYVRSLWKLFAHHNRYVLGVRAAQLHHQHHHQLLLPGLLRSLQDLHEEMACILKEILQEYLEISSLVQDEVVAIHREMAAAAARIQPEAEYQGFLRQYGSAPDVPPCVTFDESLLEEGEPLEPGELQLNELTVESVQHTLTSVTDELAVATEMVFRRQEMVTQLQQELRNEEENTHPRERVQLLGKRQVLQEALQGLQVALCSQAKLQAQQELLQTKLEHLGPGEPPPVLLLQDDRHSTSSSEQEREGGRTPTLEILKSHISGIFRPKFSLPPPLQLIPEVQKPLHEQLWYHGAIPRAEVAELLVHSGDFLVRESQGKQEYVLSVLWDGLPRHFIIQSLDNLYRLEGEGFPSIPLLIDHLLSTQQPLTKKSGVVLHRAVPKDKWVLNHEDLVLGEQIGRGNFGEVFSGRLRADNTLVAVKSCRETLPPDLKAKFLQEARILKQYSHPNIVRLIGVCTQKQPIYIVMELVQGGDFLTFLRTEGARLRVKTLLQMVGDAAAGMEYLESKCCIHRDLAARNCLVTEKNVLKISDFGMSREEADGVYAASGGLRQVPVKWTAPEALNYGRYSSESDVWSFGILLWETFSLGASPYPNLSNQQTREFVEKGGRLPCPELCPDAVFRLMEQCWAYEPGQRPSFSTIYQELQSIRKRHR

SMILES	remaining activity at 1 µM (MAPKAPK2) [%]	remaining activity at 1 µM (PIM3) [%]	remaining activity at 1 µM (RSK2) [%]	remaining activity at 1 µM (PKD2/PRKD2) [%]	remaining activity at 1 µM (TESK2) [%]	remaining activity at 1 µM (CDK2/CYCLIN E) [%]	remaining activity at 1 µM (NEK4) [%]	remaining activity at 1 µM (DAPK2) [%]	remaining activity at 1 µM (GCK/MAP4K2) [%]	remaining activity at 1 µM (PKN3/PRK3) [%]	remaining activity at 1 µM (ZAK/MLTK) [%]	remaining activity at 1 µM (MKK4) [%]	remaining activity at 1 µM (CDK17/CYCLIN Y (PCTK2)) [%]	remaining activity at 1 µM (WNK1) [%]	remaining activity at 1 µM (IGFIR) [%]	remaining activity at 1 µM (KDR/VEGFR2) [%]	remaining activity at 1 µM (MELK) [%]	remaining activity at 1 µM (CDK16/CYCLIN Y (PCTAIRE)) [%]	remaining activity at 1 µM (MEKK2) [%]	remaining activity at 1 µM (PKN2/PRK2) [%]	other results
Cc1cn(-c2cc(C(=O)Nc3ccc(C)c(N4Cc5cnc(NC6CC6)nc5C5(CC5)C4=O)c3)cc(C(F)(F)F)c2)cn1 [Compound 8, N-(3-(2'-(cyclopropylamino)-7'-oxo-5'H-spiro[cyclopropane-1,8'-pyrido[4,3-d]pyrimidine]-6'(7'H)-yl)-4-methylphenyl)-3-(4-methyl-1H-imidazol-1-yl)-5-(trifluoromethyl)benzamide]	> 40	> 40	> 40	> 40	≤ 40	> 40	≤ 40	> 40	≤ 40	> 40	≤ 40	> 40	> 40	> 40	> 40	≤ 40	> 40	> 40	≤ 40	> 40	remaining activity at 1 µM (STK32C/YANK3): > 40%; remaining activity at 1 µM (CDK9/CYCLIN T1): > 40%; remaining activity at 1 µM (EPHB1): ≤ 40%; remaining activity at 1 µM (CDK6/CYCLIN D1): > 40%; remaining activity at 1 µM (AKT1): > 40%; remaining activity at 1 µM (FES/FPS): ≤ 40%; remaining activity at 1 µM (MLCK2/MYLK2): ≤ 40%; remaining activity at 1 µM (P38G; P38G): > 40%; remaining activity at 1 µM (PKCA): > 40%; remaining activity at 1 µM (LOK/STK10): ≤ 40%; remaining activity at 1 µM (AURORA A): > 40%; remaining activity at 1 µM (P38D/MAPK13; P38D/MAPK13, 1 µM): > 40%; remaining activity at 1 µM (PDGFRB): ≤ 40%
Cc1ccc(Nc2ncc3c(n2)C2(CC2)C(=O)N(c2cc(NC(=O)c4cccc(C(F)(F)F)c4)ccc2C)C3)cn1 [Compound 51, N-(4-methyl-3-(2'-((6-methylpyridin-3-yl)amino)-7'-oxo-5'H-spiro[cyclopropane-1,8'-pyrido[4,3-d]pyrimidine]-6'(7'H)-yl)phenyl)-3-(trifluoromethyl)benzamide]	> 40	> 40	> 40	> 40	≤ 40	> 40	≤ 40	> 40	≤ 40	> 40	≤ 40	> 40	> 40	> 40	> 40	≤ 40	> 40	> 40	≤ 40	> 40	remaining activity at 1 µM (STK32C/YANK3): > 40%; remaining activity at 1 µM (CDK9/CYCLIN T1): > 40%; remaining activity at 1 µM (EPHB1): ≤ 40%; remaining activity at 1 µM (CDK6/CYCLIN D1): > 40%; remaining activity at 1 µM (AKT1): > 40%; remaining activity at 1 µM (FES/FPS): ≤ 40%; remaining activity at 1 µM (MLCK2/MYLK2): ≤ 40%; remaining activity at 1 µM (P38G; P38g): > 40%; remaining activity at 1 µM (PKCA): > 40%; remaining activity at 1 µM (LOK/STK10): ≤ 40%; remaining activity at 1 µM (AURORA A): > 40%; remaining activity at 1 µM (P38D/MAPK13; P38d/MAPK13, 1 µM): > 40%; remaining activity at 1 µM (PDGFRB): ≤ 40%
